Laboratory results as given in patent US12384806B2, “Isopaucifloral F phosphate compound and pharmaceutical use thereof” (FUDAN UNIVERSITY, priority 2020, dated 2025).

Key:
[1] = system: mouse osteoblast precursor cells MC3T3-E1 Subclone 14; assay: Differentiation-promoting effect, ALP enzyme activity assay; type: cell-based; details: for ALP enzyme activity relative values (experimental group/blank group): 6th day
From the text: (2) Study on the differentiation-promoting effect of compounds on mouse osteoblast precursor cells MC3T3-E1 Subclone 14 (see Table 2): MC3T3-E1 subclone 14 cells were digested with pancreatin and collected and then seeded into a 6-well plate at 4×10^4/well. […] The administration concentrations of the compounds were 10^−4˜10^−9 M, respectively; and the administration concentration of the positive control drug group genistein GEN was 10^−6 M, a concentration at which it had the highest osteogenesis promoting ability as reported in the literature. On the 6th day of administration, each well was washed twice with PBS, 150 uL of Western and IP cell lysate (with no protein inhibitor, commercially available from Beyotime) was then added to lyse the cells. This operation was performed on ice. 50 uL of cell lysate was diluted to 250 uL with PBS. 50 uL of dilution was additionally transferred to a 96-well plate for an ALP enzyme activity assay. The absorbance of each well in the 96-well plate was measured with a microplate reader at 405 nm.

[2] = system: mouse osteoblast precursor cells MC3T3-E1 Subclone 14; assay: Proliferation-promoting effect by MTT assay; type: cell-based; details: for Proliferation Rate: 6th day, MTT
Description: Genistein and estradiol were used as positive control groups. MC3T3-E1 Subclone 14 was cultured using the α-MEM medium containing 10% FBS in a constant temperature incubator at 37° C. with 5% CO2. The MC3T3-E1 Subclone 14 cells in logarithmic growth phase and in good condition were digested with addition of an appropriate amount of trypsin (commercially available from GIBCO), and the cells were collected. The cells were resuspended in the α-MEM medium containing 10% FBS, and seeded on a 96-well plate at an amount of 2000 cells per well. After cell adhesion, the medium was changed to the α-MEM medium containing 10% FBS of different concentrations of compounds at 200 μL per well. The cells with the culture fluid containing 0.2% DMSO added thereto were used as a negative control group of the medium. The medium was added to the wells without seeded cells as a blank control group. Six replicate wells were set for each concentration. The medium was changed once every 2 days, and on the 6th day of administration, a 20 μL MTT/PBS solution at 5 mg/mL was added to the above 96-well plate, and the incubation was continued for 4 hours. After the time point, the liquid was carefully aspirated and 150 μL of DMSO was added to each well to completely dissolve the purple crystal formazan formed by live cells and MTT. The optical density (OD) value was measured at 490 nm with a microplate reader. The proliferation rate was calculated according to the following formula: Proliferation rate=[(the average OD value of the administration group−the average OD value of the blank group)/(the average OD value of the culture fluid control group−the average OD value of the blank group)].

[3] = system: osteoblasts; assay: Formation of calcium nodules in osteoblasts (Alizarin Red); type: cell-based, mouse; details: 15th day
Description: (3) Study on the effect of target compounds on the formation of calcium nodules in osteoblasts (see FIG. 1 and Table 3 for details): after being digested, the cells were seeded into a 6-well plate at 4×10^4/well. […] The administration concentrations of the compounds were 10^−4˜10^−9 M, respectively; and the concentration of genistein is 10^−6 M. On the 15th day of administration, the medium was aspirated, each well was then washed twice with PBS, the cells were then fixed with 95% ethanol for 10 minutes and rinsed twice with double distilled water. 2 mL of a 0.1% Alizarin Red-Tris. HCl solution (PH=8.3) was added to each well, the cells were incubated at 37° C. for 30 minutes, then rinsed with double distilled water for several times, dried, and mounted. The formation of calcium nodules was further observed by taking pictures under a 40× microscope. Afterwards, 1 mL of a 10% cetylpyridinium chloride solution was added to each well, and the incubation was carried out for 30 minutes to release the Alizarin Red staining. The solution was transferred to a 96-well plate at 200 uL per well, the absorbance was measured at 562 nm using a microplate reader, and a quantitative analysis of calcium nodules was performed.

[4] = Determination of lipid-water partition coefficients (n-octanol/water, HPLC); type: physicochemical; details: 37° C.
Description: (1) Determination of lipid-water partition coefficients: a standard curve was first made. […] Their respective solution was subjected to the HPLC sample injection analysis. HPLC conditions were: mobile phase: 5%˜95% acetonitrile/water, gradient elution, a flow rate of 0.6 mL/min, a sample injection volume of 10 μL, a detection wavelength of 254/280 nm, run for 20 min. The retention time and peak area were recorded, and the standard curve was obtained by regressing the concentration and the peak area.
Moreover, 10 mL of water and 10 mL of n-octanol were taken into a 25 mL eggplant-shaped flask and stirred for 24 hours until the two phases were saturated with each other. The mixed solution was then transferred to a separatory funnel. Let it stand for liquid separation. 1 mL of the upper layer (saturated n-octanol layer) was taken, about 2 mg of the compound to be tested was added to vortex for 5 minutes to fully dissolve, and 1 mL of saturated aqueous phase was additionally taken and mixed with the saturated n-butanol phase in which the compound was dissolved. After vortexing for 5 minutes and oscillation for 24 hours in a water bath at 37° C., centrifugation was performed at 3500 rpm for 15 minutes. The upper n-octanol layer and the lower aqueous layer were respectively taken for the sample injection analysis under HPLC conditions. […]

[5] = system: mouse mononuclear macrophages RAW264.7; assay: Bone resorption inhibition: TRAP-positive multinucleated osteoclast count; type: cell-based; details: 5 days; for Number of Osteoclasts (cell): control group 117
Description: After being cultured for 5 days, the cells were stained with a tartrate-resistant acid phosphatase TRAP incubation solution, mounted with glycerol gelatin, and observed under light microscope to count stained TRAP-positive multinucleated cells (as shown in FIG. 2). The inhibition rate of the administrated drug on the number of TRAP-positive multinucleated cells is (nTRAP-positive multinucleated osteoclasts in the negative control group−nTRAP-positive multinucleated osteoclasts in the drug administration group)/nTRAP-positive multinucleated osteoclasts in the negative control group×100%.

[6] = Metabolic stability in human liver microsomes; type: in vitro ADME; details: 37° C.
Description: Experimental method: the incubation system comprising human liver microsomes, cofactors, and PBS was pre-incubated at 37° C. for 3 minutes, and a substrate was added to start the reaction. Sampling was performed at 0, 1, 5, 10, 15, 20, 30, and 60 minutes after the start of the reaction, and an appropriate terminator was added to terminate the reaction. Sample treatment (n=3): appropriate internal standards were added to each; after vortexing, centrifugation was performed at a high speed, the supernatant was taken, and the substrate was detected by employing HPLC-MS/MS. The peak area at a time point 0 min was taken as 100%. Peak areas at other time points were converted to the remaining percentage, the natural logarithm of the remaining percentage at each time point versus incubation time was plotted, and a slope (−k) was calculated by linear regression, and then CLint (mL·min^−1·mg^−1) was calculated based on the inherent clearance (CLint)=(k×the volume of incubation solution)/mass of liver microsomes.

[7] = target: estrogen receptor ERβ (Homo sapiens, UniProt Q92731); assay: Estrogen receptor agonism (earlier experiments of the research team)
Sequence of estrogen receptor ERβ (Q92731 whole entry): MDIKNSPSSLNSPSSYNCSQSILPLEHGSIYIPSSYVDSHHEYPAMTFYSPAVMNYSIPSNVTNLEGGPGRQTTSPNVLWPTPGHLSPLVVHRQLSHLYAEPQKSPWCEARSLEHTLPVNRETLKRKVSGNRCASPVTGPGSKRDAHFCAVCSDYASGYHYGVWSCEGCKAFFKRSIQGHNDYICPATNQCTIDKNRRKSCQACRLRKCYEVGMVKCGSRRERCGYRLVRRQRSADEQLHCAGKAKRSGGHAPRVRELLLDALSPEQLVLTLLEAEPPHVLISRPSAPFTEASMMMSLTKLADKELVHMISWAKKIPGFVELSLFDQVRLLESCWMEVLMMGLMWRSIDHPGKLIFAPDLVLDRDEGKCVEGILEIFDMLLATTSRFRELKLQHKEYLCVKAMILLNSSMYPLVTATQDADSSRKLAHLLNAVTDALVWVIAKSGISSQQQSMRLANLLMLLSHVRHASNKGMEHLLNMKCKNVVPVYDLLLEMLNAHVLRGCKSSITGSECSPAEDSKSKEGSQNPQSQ

SMILES	ALP enzyme activity relative values (experimental group/blank group) ([1]; 10^−4 M)	ALP enzyme activity relative values (experimental group/blank group) ([1]; 10^−5 M)	ALP enzyme activity relative values (experimental group/blank group) ([1]; 10^−6 M)	ALP enzyme activity relative values (experimental group/blank group) ([1]; 10^−7 M)	ALP enzyme activity relative values (experimental group/blank group) ([1]; 10^−8 M)	ALP enzyme activity relative values (experimental group/blank group) ([1]; 10^−9 M)	Proliferation Rate ([2]; 10^−4 M)	Proliferation Rate ([2]; 10^−5 M)	Proliferation Rate ([2]; 10^−6 M)	Proliferation Rate ([2]; 10^−7 M)	Proliferation Rate ([2]; 10^−8 M)	Proliferation Rate ([2]; 10^−9 M)	Relative values of calcium nodule amount (experimental group/blank group) ([3]; 10^−6 M)	Relative values of calcium nodule amount (experimental group/blank group) ([3]; 10^−8 M)	Number of Osteoclasts (cell) ([5]; 10^−6 M)	Number of Osteoclasts (cell) ([5]; 10^−8 M)	other results
CCOP(=O)(OCC)OC1=C(c2cc(OC)cc(OC)c2)C(c2ccc(OP(=O)(OCC)OCC)cc2)c2c(OC)cc(OC)cc21 (stereo not drawn) [7a]	2.362 ± 0.04	1.440 ± 0.31	1.023 ± 0.05	0.877 ± 0.01	0.860 ± 0.01	0.861 ± 0.05	–	–	–	–	–	–	–	–	–	–	–
O=c1c(-c2ccc(O)cc2)coc2cc(O)cc(O)c12 [GEN, genistein]	–	–	1.341 ± 0.01	–	–	–	0.02 ± 0.0003	0.71 ± 0.007	1.05 ± 0.019	0.99 ± 0.003	1.01 ± 0.005	1.03 ± 0.003	1.028 ± 0.03	–	–	–	–
O=C1c2cc(O)cc(O)c2[C@@H](c2ccc(O)cc2)[C@@H]1c1cc(O)cc(O)c1 [Isopaucifloral F, isopaucifloral F]	0.732 ± 0.03	0.951 ± 0.04	0.954 ± 0.02	1.135 ± 0.06	1.029 ± 0.11	0.864 ± 0.05	1.24 ± 0.028	1.06 ± 0.014	1.02 ± 0.024	0.98 ± 0.020	0.98 ± 0.045	0.95 ± 0.016	0.932 ± 0.03	0.917 ± 0.03	85	102	log P [4]: 1.34; proliferation rates ([2]; highest value of each compound, concentration not given): 124%; ALP enzyme activity, times those of the control group ([1]; highest value, concentration not given): 1.14 times; ALP enzyme activity increased by ([1]; versus control group, concentration not given): 13.5%; Relative values of calcium nodule amount (experimental group/blank group) ([3]; 10^−4 M): 0.982 ± 0.04; Relative values of calcium nodule amount (experimental group/blank group) ([3]; 10^−5 M): 0.915 ± 0.03; Relative values of calcium nodule amount (experimental group/blank group) ([3]; 10^−7 M): 0.964 ± 0.03; Relative values of calcium nodule amount (experimental group/blank group) ([3]; 10^−9 M): 0.916 ± 0.03; Relative Inhibition Rates (%) ([5]; 10^−4 M): 28.2%; Number of Osteoclasts (cell) ([5]; 10^−4 M): 84 cell; Relative Inhibition Rates (%) ([5]; 10^−6 M): 27.4%; Relative Inhibition Rates (%) ([5]; 10^−8 M): 12.8%; CLint(liver) [6]: 123.4 mL/min/kg; T1/2 [6]: 10.1 min; activity at estrogen receptor ERβ [7]: selective agonist
CCOP(=O)(OCC)OC1=C(c2cc(OC)cc(OC)c2)C(c2ccc(OC)cc2)c2c(OC)cc(OC)cc21 (stereo not drawn) [7b]	0.919 ± 0.04	0.986 ± 0.17	0.993 ± 0.01	1.195 ± 0.02	1.097 ± 0.07	0.899 ± 0.11	–	–	–	–	–	–	–	–	–	–	–
O=C(c1ccc(OCCN2CCCCC2)cc1)c1c(-c2ccc(O)cc2)sc2cc(O)ccc12 [Raloxifene]	–	–	–	–	–	–	–	–	–	–	–	–	–	–	64	67	inhibition at 1 µM ([5]; Mus musculus, RAW264.7, 120 h, 10^−6 M, read-out: Relative Inhibition Rates (%)): 45.3%; inhibition at 0.01 µM ([5]; Mus musculus, RAW264.7, 120 h, 10^−8 M, read-out: Relative Inhibition Rates (%)): 42.7%
C[C@]12CC[C@@H]3c4ccc(O)cc4CC[C@H]3[C@@H]1CC[C@@H]2O [E2, estradiol]	–	–	–	–	1.050 ± 0.02	–	0.05 ± 0.002	0.82 ± 0.003	1.07 ± 0.019	1.08 ± 0.003	1.07 ± 0.005	1.06 ± 0.003	–	1.007 ± 0.02	–	–	–
